The test system of the experiment is Escherichia coli strain ATCC25922. Description: standard microdilution assay to determine minimum inhibitory concentrations (MICs). The following applies: for E. coli ATCC25922 MIC: Escherichia coli strain ATCC25922, microdilution; for MIC: Escherichia coli, ATCC25922, Escherichia coli strain ATCC25922, microdilution, read-out: E. coli ATCC25922 MIC. Format: cell-based. Summed up:
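E. coli strain ATCC25922 tested per CLSI microdilution methodology (about 100 microliters per well) to find minimum inhibitory concentrations. Activity scored categorically at a 16 micrograms/ml threshold.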

For `N=C(N)NCCCNCc1ccc(-n2cc3cc(-c4cc(OCC(F)CN)cc(-c5ccc([N+](=O)[O-])cc5)c4)[nH]c3nc2=O)cc1` (stereo not shown) [Compound 2027a], the “E. coli ATCC25922 MIC” value is “+ (a “+” indicates that the compound has an MIC value of 16 micrograms/ml or less)”.

As to `N=C(N)NCCCNCc1ccc(-n2cc3cc(-c4cc(CCCCN)cc(C(F)(F)F)c4)[nH]c3nc2=O)cc1` [Compound 2029a], the MIC was below 16 µg/mL.

For the molecule `N=C(N)NCCCNCc1ccc(-n2cc3cc(-c4cc(OCC(F)CN)cc(-c5cccc(CN)c5)c4)[nH]c3nc2=O)cc1` (stereo not shown) [Compound 2030a], the “E. coli ATCC25922 MIC” value is “+ (a “+” indicates that the compound has an MIC value of 16 micrograms/ml or less)”.

For the molecule `CS(=O)(=O)NCCc1cc(OCC(F)CN)cc(-c2cc3cn(-c4ccc(CNCCCNC(=N)N)cc4)c(=O)nc3[nH]2)c1` (stereo not shown) [Compound 2031a], the “E. coli ATCC25922 MIC” value is “− (a “−” indicates that the compound has an MIC value greater than 16 micrograms/ml)”.

With `CC(=O)NCCc1cc(OCC(F)CN)cc(-c2cc3cn(-c4ccc(CNCCCNC(=N)N)cc4)c(=O)nc3[nH]2)c1` (stereo not shown) [Compound 2032a], the “E. coli ATCC25922 MIC” value is on record as “− (a “−” indicates that the compound has an MIC value greater than 16 micrograms/ml)”.

With `CCNCCc1cc(OCC(F)CN)cc(-c2cc3cn(-c4ccc(CNCCCNC(=N)N)cc4)c(=O)nc3[nH]2)c1` (stereo not shown) [Compound 2033a], the “E. coli ATCC25922 MIC” value is given as “+ (a “+” indicates that the compound has an MIC value of 16 micrograms/ml or less)”.

For `N=C(N)NCCCNC(=O)c1ccc(-n2cc3cc(-c4cc(CCCCN)cc(C(F)(F)F)c4)[nH]c3nc2=O)cc1` [Compound 2034a], the MIC was below 16 µg/mL.

On to `COCCOCCc1cc(OCC(F)CN)cc(-c2cc3cn(-c4ccc(CNCCCNC(=N)N)cc4)c(=O)nc3[nH]2)c1` (stereo not shown) [Compound 2035a], for which the “E. coli ATCC25922 MIC” value is “− (a “−” indicates that the compound has an MIC value greater than 16 micrograms/ml)”.

In the case of `COCc1cc(OCC(F)CN)cc(-c2cc3cn(-c4ccc(CNCCCNC(=N)N)cc4)c(=O)nc3[nH]2)c1` (stereo not shown) [Compound 2036a], the “E. coli ATCC25922 MIC” value is “+ (a “+” indicates that the compound has an MIC value of 16 micrograms/ml or less)”.

`CS(=O)(=O)NCc1cc(OCC(F)CN)cc(-c2cc3cn(-c4ccc(CNCCCNC(=N)N)cc4)c(=O)nc3[nH]2)c1` (stereo not shown) [Compound 2037a]: the “E. coli ATCC25922 MIC” value is listed as “− (a “−” indicates that the compound has an MIC value greater than 16 micrograms/ml)”.

`CC(CN)CN1CCC(c2cc3cn(-c4ccc(CNCCCNC(=N)N)cc4)c(=O)nc3[nH]2)C1` (stereo not shown) [Compound 2038a]: the “E. coli ATCC25922 MIC” value is given as “+ (a “+” indicates that the compound has an MIC value of 16 micrograms/ml or less)”.

In the case of `CC(CN)CN1CCC(c2cc3cn(-c4ccc(CNCCCNC(=N)N)cc4)c(=O)nc3[nH]2)C1` (stereo not shown) [Compound 2040a], the “E. coli ATCC25922 MIC” value is given as “+ (a “+” indicates that the compound has an MIC value of 16 micrograms/ml or less)”.

For `CC(CN)CN1CCC(c2cc3cn(-c4ccc(CNCCCN)cc4)c(=O)nc3[nH]2)C1` (stereo not shown) [Compound 2041a], the “E. coli ATCC25922 MIC” value is “+ (a “+” indicates that the compound has an MIC value of 16 micrograms/ml or less)”.

With `CNCCN1CCCC(c2cc3cn(-c4ccc(CNCCCNC(=N)N)cc4)c(=O)nc3[nH]2)C1` (stereo not shown) [Compound 2042a], the “E. coli ATCC25922 MIC” value is “+ (a “+” indicates that the compound has an MIC value of 16 micrograms/ml or less)”.

As to `N=C(N)NCCCNCc1ccc(-n2cc3cc(C4CCCN(CCOCCO)C4)[nH]c3nc2=O)cc1` (stereo not shown) [Compound 2043a], the “E. coli ATCC25922 MIC” value is reported as “+ (a “+” indicates that the compound has an MIC value of 16 micrograms/ml or less)”.

Take `N=C(N)NCCCNCc1ccc(-n2cc3cc(C4CCCN(CCCN5CCOCC5)C4)[nH]c3nc2=O)cc1` (stereo not shown) [Compound 2044a]: the “E. coli ATCC25922 MIC” value is “+ (a “+” indicates that the compound has an MIC value of 16 micrograms/ml or less)”.

Consider `N=C(N)NCCCNCc1ccc(-n2cc3cc(-c4cc(C=CCCN)cc(OC(F)(F)F)c4)[nH]c3nc2=O)cc1` [Compound 2045a], for which the “E. coli ATCC25922 MIC” value is recorded as “+ (a “+” indicates that the compound has an MIC value of 16 micrograms/ml or less)”.

Turning to `N=C(N)NCCCNCc1ccc(-n2cc3cc(-c4cc(CCCCN)cc(SC(F)(F)F)c4)[nH]c3nc2=O)cc1` [Compound 2046a], the “E. coli ATCC25922 MIC” value is reported as “+ (a “+” indicates that the compound has an MIC value of 16 micrograms/ml or less)”.

`N=C(N)NCCCNCc1ccc(-n2cc3cc(-c4cc(OC(F)(F)F)cc(SCCCN)c4)[nH]c3nc2=O)cc1` [Compound 2047a]: the “E. coli ATCC25922 MIC” value is “+ (a “+” indicates that the compound has an MIC value of 16 micrograms/ml or less)”.

In the case of `N=C(N)NCCCNC(=O)c1ccc(-n2cc3cc(-c4cc(CCCCN)cc(OC(F)(F)F)c4)[nH]c3nc2=O)cc1` [Compound 2048a], the “E. coli ATCC25922 MIC” value was “+ (a “+” indicates that the compound has an MIC value of 16 micrograms/ml or less)”.

In the case of `CSCc1cc(OCC(F)CN)cc(-c2cc3cn(-c4ccc(CNCCCNC(=N)N)cc4)c(=O)nc3[nH]2)c1` (stereo not shown) [Compound 2049a], the “E. coli ATCC25922 MIC” value is on record as “+ (a “+” indicates that the compound has an MIC value of 16 micrograms/ml or less)”.

With `N=C(N)NCCCNCc1ccc(-n2cc3cc(-c4cc(CO)cc(OCC(F)CN)c4)[nH]c3nc2=O)cc1` (stereo not shown) [Compound 2050a], the “E. coli ATCC25922 MIC” value was “+ (a “+” indicates that the compound has an MIC value of 16 micrograms/ml or less)”.

`N=C(N)NCCCNCc1ccc(-n2cc3cc(-c4cc(CN)cc(OCC(F)CN)c4)[nH]c3nc2=O)cc1` (stereo not shown) [Compound 2051a]: the “E. coli ATCC25922 MIC” value was “+ (a “+” indicates that the compound has an MIC value of 16 micrograms/ml or less)”.

Consider `N=C(N)NCCCNCc1ccc(-n2cc3cc(-c4cc(OC(F)(F)F)cc(S(=O)(=O)CCCN)c4)[nH]c3nc2=O)cc1` [Compound 2052a], for which the “E. coli ATCC25922 MIC” value is given as “+ (a “+” indicates that the compound has an MIC value of 16 micrograms/ml or less)”.

With `N=C(N)NCCCNCc1ccc(-n2cc3cc(-c4cc(CCO)cc(CCCCN)c4)[nH]c3nc2=O)cc1` [Compound 2053a], the “E. coli ATCC25922 MIC” value is “+ (a “+” indicates that the compound has an MIC value of 16 micrograms/ml or less)”.

As for `N=C(N)NCCCNCc1ccc(-n2cc3cc(-c4cc(CCCCN)cc([S+]([O-])C(F)(F)F)c4)[nH]c3nc2=O)cc1` (stereo not shown) [Compound 2054a], the “E. coli ATCC25922 MIC” value was “+ (a “+” indicates that the compound has an MIC value of 16 micrograms/ml or less)”.

As to `N=C(N)NCCCNCc1ccc(-n2cc3cc(-c4cc(CCCCN)cc(S(=O)(=O)C(F)(F)F)c4)[nH]c3nc2=O)cc1` [Compound 2055a], the “E. coli ATCC25922 MIC” value is “+ (a “+” indicates that the compound has an MIC value of 16 micrograms/ml or less)”.

Turning to `NCCCc1cccc(-c2cc3cn(-c4ccc(C(N)=O)cc4)c(=O)nc3[nH]2)c1` [Compound 2056a], the MIC was above 16 µg/mL.

Turning to `NCCCc1cccc(-c2cc3cn(-c4ccc(CN)cc4)c(=O)nc3[nH]2)c1` [Compound 2057a], the MIC is above 16 µg/mL.

In the case of `N=C(N)NCCCNCc1ccc(-n2cc3cc(-c4cc(CCCN)cc(OC(F)(F)F)c4)[nH]c3nc2=O)cc1` [Compound 2058a], the “E. coli ATCC25922 MIC” value is given as “+ (a “+” indicates that the compound has an MIC value of 16 micrograms/ml or less)”.

For `N=C(N)NCCCNCc1ccc(-n2cc3cc(-c4cc(OC(F)(F)F)cc(S(=O)(=O)NCCN)c4)[nH]c3nc2=O)cc1` [Compound 2059a], the “E. coli ATCC25922 MIC” value is reported as “+ (a “+” indicates that the compound has an MIC value of 16 micrograms/ml or less)”.

As for `N=C(N)NCCCNCc1ccc(-n2cc3cc(-c4cncc(CCCCN)c4)[nH]c3nc2=O)cc1` [Compound 2060a], the “E. coli ATCC25922 MIC” value is “+ (a “+” indicates that the compound has an MIC value of 16 micrograms/ml or less)”.

Regarding `N=C(N)NCCCNCc1ccc(-n2cc3cc(-c4cc(OC(F)(F)F)cc(C(O)CCN)c4)[nH]c3nc2=O)cc1` (stereo not shown) [Compound 2061a], the “E. coli ATCC25922 MIC” value was “+ (a “+” indicates that the compound has an MIC value of 16 micrograms/ml or less)”.

As for `N=C(N)NCCCNCc1ccc(-n2cc3cc(-c4cc(CCN)cc(CCCCN)c4)[nH]c3nc2=O)cc1` [Compound 2062a], the “E. coli ATCC25922 MIC” value is given as “+ (a “+” indicates that the compound has an MIC value of 16 micrograms/ml or less)”.

As to `CC(=O)NCc1ccc(-n2cc3cc(-c4cccc(CCCN)c4)[nH]c3nc2=O)cc1` [Compound 2063a], the “E. coli ATCC25922 MIC” value was “− (a “−” indicates that the compound has an MIC value greater than 16 micrograms/ml)”.

Consider `N=C(N)NCCCNCc1ccc(-n2cc3cc(-c4cc(CN)cc(CCCCN)c4)[nH]c3nc2=O)cc1` [Compound 2064a], for which the “E. coli ATCC25922 MIC” value was “+ (a “+” indicates that the compound has an MIC value of 16 micrograms/ml or less)”.

As for `N=C(N)NCCCNCc1ccc(-n2cc3cc(-c4cc(CO)cc(CCCCN)c4)[nH]c3nc2=O)cc1` [Compound 2065a], the “E. coli ATCC25922 MIC” value is recorded as “+ (a “+” indicates that the compound has an MIC value of 16 micrograms/ml or less)”.

As to `CSc1cc(CCCCN)cc(-c2cc3cn(-c4ccc(CNCCCNC(=N)N)cc4)c(=O)nc3[nH]2)c1` [Compound 2066a], the “E. coli ATCC25922 MIC” value was “+ (a “+” indicates that the compound has an MIC value of 16 micrograms/ml or less)”.

In the case of `N=C(N)NCCCNCc1ccc(-n2cc3cc(-c4cc(C(F)(F)F)cc(S(=O)(=O)NCCN)c4)[nH]c3nc2=O)cc1` [Compound 2067a], the “E. coli ATCC25922 MIC” value is listed as “+ (a “+” indicates that the compound has an MIC value of 16 micrograms/ml or less)”.

For `N=C(N)NCCCNCc1ccc(-n2cc3cc(-c4cc(Cl)cc(CCCCN)c4)[nH]c3nc2=O)cc1` [Compound 2068a], the “E. coli ATCC25922 MIC” value is listed as “+ (a “+” indicates that the compound has an MIC value of 16 micrograms/ml or less)”.

In the case of `N=C(N)NCCCNCc1ccc(-n2cc3cc(-c4cc(CCCCN)cc(C(N)=O)c4)[nH]c3nc2=O)cc1` [Compound 2069a], the “E. coli ATCC25922 MIC” value was “+ (a “+” indicates that the compound has an MIC value of 16 micrograms/ml or less)”.

For `N=C(N)NCCCNCc1ccc(-n2cc3cc(-c4cc(CNCCN)cc(OC(F)(F)F)c4)[nH]c3nc2=O)cc1` [Compound 2070a], the “E. coli ATCC25922 MIC” value was “+ (a “+” indicates that the compound has an MIC value of 16 micrograms/ml or less)”.

Turning to `N=C(N)NCCCNCc1ccc(-n2cc3cc(-c4ccc(F)c(CCCCN)c4)[nH]c3nc2=O)cc1` [Compound 2071a], the “E. coli ATCC25922 MIC” value was “+ (a “+” indicates that the compound has an MIC value of 16 micrograms/ml or less)”.

(Values after patent publication US9193731B2, “Antimicrobial compounds and methods of making and using the same” (Melinta Therapeutics, Inc., priority 2009, dated 2015).)
